Measurements from article PMC8587043, “An Investigation into the Interaction between Double Hydroxide-Based Antioxidant Benzophenone Derivatives and Cyclooxygenase 2” (Molecules, 2021).

Experiments:
EA.hy926 cells = experiment: Protective effect against H2O2-induced oxidative damage, MTT assay; format: cell-based, human; conditions: for EC50: Homo sapiens, EA.hy 926, 4 h, protection against H2O2-induced damage (400 µmol·L^−1, 4 h), n = 3, mean ± SD; for protection rate compared with positive controls (fenofibrate and quereetin): statistical comparison
Experimental: Hydrogen peroxide (H2O2), a small molecule and functions as oxidative stress and a second messenger which contributes to cell damage or death, could directly induce inflammation in several cell lines. H2O2-induced cell damage is a commonly used model for antioxidant activity evaluation. […] Thus, the concentration of 400 µmol·L^−1 at 4 h was chosen as the model.
Compound SC2 stock solutions were prepared in DMSO. The stock solutions were diluted with FBS free DMEM to different target concentrations (DMSO concentrations ≤ 0.5% v:v). Cells (100 μL, 2 × 10^5 cells∙mL^−1) were seeded on 96-well plates and cultured for 24 h. The medium was then replaced with fresh media containing H2O2 with different concentrations (0, 100, 200, 300, 400, 500, and 600 μmol·L^−1 in FBS free DMEM) and compound SC2 (50, 40, 30, 20, 10 µmol·L^−1), which were transferred to the incubator and cultured for additional time (2, 4, and 6 h). The medium was then replaced with 100 μL of FBS free DMEM and MTT (10 μL, 5 mg·mL^−1 in PBS) and after 4 h the medium was replaced with DMSO (100 μL). A microplate reader (SpectraMaxPlus384, Molecular Devices, United States) was used to record the absorbance at 490 nm for each well of the plates. Cell viability was measured via MTT assay. Survival rate (%) = (Asample group/Acontrol group) × 100%.
Cells (100 μL, 2 × 10^5 cells·mL^−1) were seeded in 96-well plates for 24 h. Cells were treated with different groups and cell viability was measured via MTT assay. The protection rates to oxidative damage were determined and EC50 values were calculated. The protection rates to cells were calculated using the following formula: Protection rate (%) = (Apretreatment group − Amodel group)/(Acontrol group − Amodel group) × 100%.

COX2 = biological target: T1, COX2 (Homo sapiens, UniProt P35354); experiment: Fluorescence quenching of COX2 (Stern-Volmer, double logarithm, thermodynamic parameters); format: binding; conditions: for Kq (bimolecular quenching constant): Kq = Ksv/τ0
T1 construct: purchased Sino Biological Co. (Beijing, China)
T1 sequence (P35354 18-604): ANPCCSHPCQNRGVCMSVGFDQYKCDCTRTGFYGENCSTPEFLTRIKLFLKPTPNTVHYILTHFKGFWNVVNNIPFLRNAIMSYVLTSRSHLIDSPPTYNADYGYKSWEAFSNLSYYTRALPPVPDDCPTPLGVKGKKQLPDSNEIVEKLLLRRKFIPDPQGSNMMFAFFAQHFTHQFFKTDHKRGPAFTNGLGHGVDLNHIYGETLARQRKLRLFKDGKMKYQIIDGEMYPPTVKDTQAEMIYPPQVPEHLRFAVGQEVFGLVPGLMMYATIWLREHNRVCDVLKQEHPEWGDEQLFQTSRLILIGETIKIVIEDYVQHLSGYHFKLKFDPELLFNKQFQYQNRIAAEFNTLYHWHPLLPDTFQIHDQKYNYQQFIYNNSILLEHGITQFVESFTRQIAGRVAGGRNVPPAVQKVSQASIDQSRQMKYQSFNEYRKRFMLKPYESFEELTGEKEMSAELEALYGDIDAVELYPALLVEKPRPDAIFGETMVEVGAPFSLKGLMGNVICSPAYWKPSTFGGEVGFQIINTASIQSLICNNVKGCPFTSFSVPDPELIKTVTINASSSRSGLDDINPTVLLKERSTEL
From the text: The emitted fluorescence spectra of COX2 solution (6.0 × 10^−8 mol∙L^−1) without and with an increasing concentration of compounds DB2, SC2 or YB2 (7.5 × 10^−6 mol∙L^−1 to 4.5 × 10^−5 mol∙L^−1) at different temperatures are shown in Figure 4a,b, Figure 4c,d or Figure 4e,f, respectively. […] The quenching constant Kq and Stern–Volmer constant Ksv at different temperatures are usually used to identify the quenching mechanisms, static or dynamic. The former is caused by ground-state complex formation, the latter is diffusion. For the static quenching mechanism, the quenching constant decreases with temperature increase. In this part, we calculated the Kq and Ksv values by using a universally accepted Stern–Volmer equation [38]:(1) F0/F=1+Kqτ0[Q]=1+Ksv[Q] where F0 and F are the protein fluorescence intensities in the absence and the presence of quencher (compounds DB2, SC2 or YB2), respectively. Kq = Ksv/ τ0 . τ0 is the fluorescence lifetime of the fluorophore without the quencher ([…]). [Q] is the concentration of quencher. The Stern-Volmer plots of COX2 fluorescence quenching by compounds DB2, SC2 or YB2 are presented in Figure 5a, Figure 5b or Figure 5c, respectively. According to Table 1, the Ksv and Kq values for all three systems (COX2-DB2, COX2-SC2 and COX2-YB2) decreased with increasing temperature. Therefore, we considered that the quenching was static quenching. To further verify that the system was static quenching, dynamic quenching was assumed first.
For the static quenching, we can use the double logarithm equation to obtain the binding constant (KA) and the number of binding sites per protein (n):(2) lgF0−F/F=lgKA+nlg[Q]
There are four main kinds of non-covalent forces between drugs and proteins. These are electrostatic force, hydrogen bonding, hydrophobic force and van der Waals force. The kind of interaction between compounds DB2, SC2 or YB2 and COX2 can be obtained from thermodynamic parameters, including the free energy change (ΔG), enthalpy change (ΔH) and entropy change (ΔS) of the reaction. The three thermodynamic parameters can be obtained according to the published equations [42, 44]:(3) ΔG=−RTlnK (4) lnK2/K1=ΔH(1/T1−1/T2)×1/R (5) ΔG=ΔH−TΔS
The fluorescence intensity of the system was measured with a 1.0 cm quartz cell. COX2 protein was dissolved in PBS for a final concentration of 6.0 × 10^−8 mol∙L^−1. DB2, SC2 or YB2 stock solutions were prepared in singleton at 1.5 × 10^−3 mol∙L^−1 in PBS containing 0.1% DMSO. 2.0 mL COX2 solution was separately titrated by continuing additions of 10 μL compounds DB2, SC2 or YB2 solution). After incubation at 298 K or 310 K, fluorescence quenching spectra were recorded in the region 325-450 nm at a scan rate of 1200 nm∙min^−1. The local environment of Tyr and Trp residues was quite sensitive at 280 nm, so the excitation wavelength was set at this wavelength. Typically, 280 nm is also used to measure the changes in protein tertiary structure. The slit widths of emission and excitation were both fixed at 10 nm. To observe spectra behaviors of Tyr and Trp groups of COX2, the wavelength interval between the excitation and emission wavelengths (Δλ) was set as 15 nm and 60 nm, respectively. Three-dimensional fluorescence spectroscopy was obtained for an excitation range of 200–300 nm and an emission range of 325–400 nm. Appropriate buffer solutions, determined under the same operation conditions, were used as blanks. Each spectrum was recorded three times.

Molecule	EC50 (EA.hy926 cells) [nM]	protection rate compared with positive controls (fenofibrate and quereetin) (EA.hy926 cells)	further results
CCCCc1ccc(C(=O)c2cc(O)c(O)cc2Br)cc1 [DB1]	7080 ± 92.6	–	–
CCCCc1ccc(C(=O)c2cc(O)c(O)cc2Cl)cc1 [DC1]	3310 ± 242	–	–
CCCCc1ccc(C(=O)c2c(Cl)cc(O)c(O)c2O)cc1 [DC2]	1550 ± 924	no significant difference	–
O=c1c(O)c(-c2ccc(O)c(O)c2)oc2cc(O)cc(O)c12 [Quereetin, quercetin, reference compound]	7980 ± 1230	–	–
CC(C)(C)c1ccc(C(=O)c2cc(O)c(O)cc2Br)cc1 [SB1]	12 ± 4.8	no significant difference	–
CC(C)(C)c1ccc(C(=O)c2c(Br)cc(O)c(O)c2O)cc1 [SB2]	25.2 ± 12.2	no significant difference	–
CC(C)(C)c1ccc(C(=O)c2cc(O)c(O)cc2Cl)cc1 [SC1]	1910 ± 521	no significant difference	–
CC(C)Cc1ccc(C(=O)c2cc(O)c(O)cc2Br)cc1 [YB1]	8510 ± 957	–	–
CC(C)Cc1ccc(C(=O)c2cc(O)c(O)cc2Cl)cc1 [YC1]	1910 ± 823	–	–
CC(C)Cc1ccc(C(=O)c2c(Cl)cc(O)c(O)c2O)cc1 [YC2]	3850 ± 925	no significant difference	–
[3-isobutyl-4-methoxy-5 -(pyrrolidine-1-carbonyl)-phenyl]-butyric acid ethyl ester [Control compound, reference compound]	–	–	KA (binding constant) (COX2; 298 K): 4436.3 ± 718.24 L/mol; Ksv (Stern-Volmer quenching constant) (COX2; 298 K): 1.71 ± 0.297 ×10^4 L∙mol^−1; n (number of binding sites per protein) (COX2; 298 K): 0.947 ± 0.116; Kq (bimolecular quenching constant) (COX2; 298 K): 1.71 ± 0.297 ×10^12 L∙mol^−1∙S^−1; KA (binding constant) (COX2; 310 K): 1417.0 ± 92.261 L/mol; Ksv (Stern-Volmer quenching constant) (COX2; 310 K): 1.05 ± 0.157 ×10^4 L∙mol^−1; n (number of binding sites per protein) (COX2; 310 K): 0.785 ± 0.0195; Kq (bimolecular quenching constant) (COX2; 310 K): 1.05 ± 0.157 ×10^12 L∙mol^−1∙S^−1
